According to PMC3030572, “Antamanide, a Derivative of Amanita phalloides, Is a Novel Inhibitor of the Mitochondrial Permeability Transition Pore” (PLoS ONE, 2011):
“Also recorded” adds a separate entry of the source. Where two headings read alike, the source gives them in different places.

Columns and labels:
[1] = tested on: HeLa cells; assay type: cell-based, human; conditions: TMRM; for induction of mitochondrial depolarization / percentage of cells with depolarized mitochondria: difference from untreated cells: 1 hour; for percentage of cells with depolarized mitochondria: difference from untreated cells: Student's t test, Figure 5B
Protocol: Figure 5 Effect of AA on mitochondrial potential of HeLa cells. A, bar graphs report the ratio between the CRC detected in the presence (CRC) and absence (CRC0) of increasing concentrations of AA in mitochondria from HeLa cells. […] B,C cytofluorimetric analysis of mitochondrial depolarization. HeLa cells were incubated with the TMRM probe and treated for 1 hour with the reported concentrations of either clotrimazole (CTM) or TAT-HK peptide. An unrelated TAT-linked peptide (TAT-Ctr) is used as a negative control. […] Bar graphs in B display the percentage of cells with depolarized mitochondria (mean±SD, n = 4). […] Histograms in C report a representative experiment, where cells with polarized and depolarized mitochondria are indicated in red and grey, respectively.
(§1) Flow cytometry recordings were performed as described, [51], [52]. Briefly, at the end of the incubation, cells were resuspended in 135 mM NaCl, 10 mM HEPES, 5 mM CaCl2 and incubated at 37°C in either TMRM (10 nM) to detect mitochondrial depolarization (reduced TMRM staining), or in FITC-conjugated Annexin-V and propidium iodide (PI, 1 µg/ml), to detect phosphatidylserine exposure on the cell surface (increased FITC-conjugated Annexin-V staining) and loss of plasma membrane integrity (PI permeability and staining). […] Samples were analyzed on a FACSCanto II flow cytometer (Becton Dickinson, San Diego, CA, USA). Data acquisition and analysis were performed using FACSDiva software.

[2] = tested on: HeLa cells; assay type: cell-based, human; conditions: data not shown
[3] = tested on: organic anion-transporting polypeptide family; conditions: also our unpublished data; ref [8]; cited from earlier work
From the text: (§2) Antamanide (AA) is a monocyclic, homodetic decapeptide isolated from the poisonous mushroom Amanita phalloides. […] Little is known about the biochemical mechanisms underlying these diverse bioactivities. […] The CyP chaperone activity, i.e. the isomerization to the cis form of the peptidyl bonds preceding each proline, is involved in folding and association processes required for proteins to perform thei ...

[4] = tested on: mitochondrial permeability transition pore (PTP); assay type: biochemical, mouse
Protocol: A, chemical structure of AA. B, D, Ca^2+ retention capacity (CRC) either in phosphate (Pi) buffer (B) or in arsenate (Asi) buffer (D). Calcium Green-5N fluorescence is reported as arbitrary units on the y axis.
Mitochondria were isolated either from livers of C57BL/6 mice through sequential centrifugations, or from cells, as described. To obtain mitochondria, cells were disrupted with a glass-Teflon potter in a buffer composed by 250 mM sucrose, 10 mM Tris-HCl, 0.1 mM EGTA-Tris, pH 7.4. Nuclei and plasma membrane fractions were separated by a first mild centrifugation (700× g, 10 min), and mitochondria were then spinned down at a higher speed (7000× g, 10 min). All procedures were carried out at 0–4°C.
PTP opening was detected as a fluorescence increase.

[5] = tested on: mitochondrial permeability transition pore (PTP); conditions: ref [30]; cited from earlier work
From the text: AA is the cyclodecapeptide c([…] (Figure 1A). To evaluate its effect on the PTP, we performed Ca^2+ retention capacity (CRC) assays on isolated mouse liver mitochondria (MLM).

[6] = tested on: mouse model of the disease; conditions: ref [38]; cited from earlier work
From the text: (§3) CyP-D is a promising pharmacological target.

[7] = tested on: muscle samples derived from patients affected by Ullrich muscular dystrophy; conditions: ref [37]; cited from earlier work
From the text: as §3

[8] = tested on: HeLa cells; assay type: cell-based, human
Protocol: A, cytofluorimetric analysis of cell death induction in HeLa cells treated for 1 hour with TAT-HK. […] TAT-Ctr was used as a negative control. Cells were double stained with Annexin V-FITC and propidium iodide (PI), to respectively evaluate apoptosis induction as phosphatidylserine exposure on the cell surface (increased Annexin V-FITC staining) and cell death as plasma membrane permeabilization (increased PI staining). We considered Annexin V^+ as early/intermediate apoptotic cells; PI^+ as necrotic cells; double stained as late apoptotic cells. Bar graphs display the percentage of each cell population (mean±SD, n = 4; double positive cells are added to both bars). […] B, histograms reporting a representative experiment, where viable cells are indicated in red, PI^+- and Annexin V^+-cells are indicated in grey and green, respectively.
as §1

[9] = tested on: immunosuppressant; set-up: method as in PMID 1494502, PMID 8441706; conditions: ref [10], [11]; cited from earlier work
From the text: as §2

[10] = tested on: HCV/HIV; conditions: ref [35]; cited from earlier work
From the text: (§4) CyP-D is a promising pharmacological target. It is part of the CyP protein family, composed by ubiquitous and extremely conserved proteins located in different subcellular compartments, [35].

[11] = tested on: lymphocyte activation; conditions: via CyP-A/CsA complex; ref [36]; cited from earlier work
From the text: as §4

[12] = tested on: tumor necrosis; metastasis formation; conditions: ref [45]; cited from earlier work
[13] = tested on: malignancies; conditions: ref [47]; cited from earlier work
[14] = tested on: multidrug resistance proteins; conditions: ref [50]; cited from earlier work
[15] = tested on: mitochondrial permeability transition pore (PTP); conditions: ref [37]; cited from earlier work
Protocol: Briefly, at the end of the incubation, cells were resuspended in 135 mM NaCl, 10 mM HEPES, 5 mM CaCl2 and incubated at 37°C in either TMRM (10 nM) to detect mitochondrial depolarization (reduced TMRM staining), or in FITC-conjugated Annexin-V and propidium iodide (PI, 1 µg/ml), to detect phosphatidylserine exposure on the cell surface (increased FITC-conjugated Annexin-V staining) and loss of plasma membrane integrity (PI permeability and staining).

[16] = tested on: HeLa cells; assay type: cell-based, human; conditions: phalloidin 50 µg/ml, 1 hour, TMRM, Figure S1B
[17] = 30 min preincubation, then TAT-HK 1 hour

In the case of `Clc1ccccc1C(c1ccccc1)(c1ccccc1)n1ccnc1` [CTM, clotrimazole], the “induction of mitochondrial depolarization” value [1] is reported as “marked mitochondrial depolarization”, the “percentage of cells with depolarized mitochondria: difference from untreated cells” value ([1]; n = 4) is reported as “significant difference (Student's t test analysis; #: p<0.01)” and the “cell death induction by clotrimazole” value ([2]; compared with TAT-HK) is reported as “A similar degree of cell death was observed”.
In the case of `N#CC(C#N)=NNc1ccc(OC(F)(F)F)cc1` [FCCP], the “mitochondrial depolarization (positive control)” value ([1]; FCCP 4 µM) is reported as “full mitochondrial depolarization”.
In the case of `C=CC[C@@H]1/C=C(\C)C[C@H](C)C[C@H](OC)[C@H]2O[C@@](O)(C(=O)C(=O)N3CCCC[C@H]3C(=O)O[C@H](/C(C)=C/[C@@H]3CC[C@@H](O)[C@H](OC)C3)[C@H](C)[C@@H](O)CC1=O)[C@H](C)C[C@@H]2OC` [FK506], the “inhibition of cell uptake of phalloidin” value [3] is given as “cell uptake of phalloidin was also inhibited”.
In the case of `COC1=C(OC)C(=O)C(C)=CC1=O` [Ub0, Ubiquinone 0, reference compound], the “CRC/CRC0: difference from CRC of untreated mitochondria” value ([4]; AA at various concentrations, Figure 1C and D, mean±SD of at least 4 experiments, Student's t test) is listed as “significant difference (Student's t test analysis; *: p<0.01)”, the “PTP inhibition in arsenate” value ([4]; arsenate (Asi) buffer, Figure 1B, D) is listed as “inhibits the pore also in Asi buffer, albeit to a lesser extent” and the “PTP inhibition when phosphate is substituted with arsenate” value [5] is listed as “the effect of CsA, but not of Ub0, is abolished”.
For `CO[C@H]1C[C@@H]2CC[C@@H](C)[C@@](O)(O2)C(=O)C(=O)N2CCCC[C@H]2C(=O)O[C@H]([C@H](C)C[C@@H]2CC[C@@H](O)[C@H](OC)C2)CC(=O)[C@H](C)/C=C(\C)[C@@H](O)[C@@H](OC)C(=O)[C@H](C)C[C@H](C)/C=C/C=C/C=C/1C` [rapamycin], the “inhibition of cell uptake of phalloidin” value [3] is given as “cell uptake of phalloidin was also inhibited”.
For Debio-025, the “mitochondrial function and apoptotic rate” value [6] is given as “normalizes mitochondrial function and apoptotic rate” and the “mitochondrial function and apoptotic rate” value [7] is given as “normalizes mitochondrial function and apoptotic rate”.
In the case of “MIASHLLAYFFTELNbA-GYGRKKRRQRRRG [TAT-HK, HKII-displacing peptide]”, the “induction of mitochondrial depolarization” value [1] is reported as “marked mitochondrial depolarization”, the “percentage of cells with depolarized mitochondria: difference from untreated cells” value ([1]; n = 4) is reported as “significant difference (Student's t test analysis; #: p<0.01)” and the cell death induction ([8]; TAT-HK 1 hour, Annexin V / propidium iodide) is reported as “fast and dramatic cell death, mainly necrosis”. For the same compound, the “number of PI+ cells: difference from untreated cells” value ([8]; TAT-HK 1 hour, n = 4, Student's t test #: p<0.01) was “significantly increased”.
With cyclosporin A [CsA] the “reversal of CTM-induced mitochondrial depolarization” value ([1]; 30 min preincubation, then CTM 1 hour, n = 4) was “significantly decreased the percentage of cells with mitochondria depolarized by CTM (Student's t test analysis; *: p<0.01); also recorded: similarly reverted”, the “reversal of TAT-HK-induced mitochondrial depolarization” value ([1]; 30 min preincubation, then TAT-HK 1 hour, n = 4) was “similarly reverted” and the “effect on TAT-HK-induced necrotic response” value [8, 17] was “virtually abolished the necrotic response”. For the same compound, the “residual apoptosis after TAT-HK” value [8, 17] was “a small fraction of cells undergoing apoptosis was still detectable”, the “protection from TAT-HK induced death” value ([8]; 30 min preincubation, then TAT-HK 1 hour, n = 4, Student's t test *: p<0.01) was “significantly protected from TAT-HK induced death” and the “inhibition of clotrimazole-induced cell death” value ([2]; clotrimazole) was “inhibited the process”. For the same compound, the immunosuppressant activity [9] was “act as immunosuppressants”, the “prevention of HCV/HIV replication” value [10] was “prevent HCV/HIV replication” and the “inhibition of lymphocyte activation” value [11] was “inhibits lymphocyte activation”. The “effect on tumor necrosis and metastasis” value [12] was “induces tumor necrosis and abrogates metastasis formation”, the “effect on progression of malignancies” value [13] was “can enhance the progression of certain malignancies” and the “inhibition of multidrug resistance proteins” value [14] was “inhibits multidrug resistance proteins”.
For cyclosporin H, the “activity on the PTP” value [15] is given as “inactive on the PTP”.
With phalloidin [reference compound] the “activity on the PTP” value ([4]; phalloidin 50 µg/ml) was “inactive on the PTP”, the “effect on mitochondrial Ca2+ retention capacity” value ([4]; phalloidin 50 µg/ml, MLM, 3 experiments, Figure S1A) was “could not detect any effect” and the “effect on mitochondrial potential” value [16] was “could not detect any effect”.
